Experiments:
Assay type in all cases: in vivo
[1] = test system: Phyllotreta striolata; assay: Efficacy test against Phyllotreta striolata; settings: 168 h, spray on bok choy seedlings, adults, 7 days after releasing, read-out: insect mortality rate
Procedure: (§1) 5 parts of the compound of the present invention, 93.6 parts of dimethylformamide, and 1.4 parts of polyoxyethylene alkylaryl ether were mixed and dissolved to prepare an emulsion (I) of 5% of the active ingredient.
(§2) The insect mortality rate and the control rate were calculated by the following formula. Insect mortality rate (%)=(number of dead insects/number of sample insects)×100 Prevention rate=[1−(Nt)/(Nc)]×100
Emulsion (I) was diluted with water so that the compound of the present invention reaches 125 ppm to prepare a test solution. The above diluted solution was sprayed on bok choy seedlings (seventh true leaf development stage) planted in No. 3 pots. After air-drying, the bok choy seedlings were put in a plastic cup and 10 adult Phyllotreta striolata were released therein. The plastic cup was stored in a thermostatic chamber with a temperature of 25° C. and a humidity of 65%, and life or death judgment was performed 7 days after releasing Phyllotreta triolata, and the insect mortality rate was calculated by the formula. The test was repeated twice.

[2] = test system: Plutella xylostella; assay: Efficacy test against Plutella xylostella; settings: 72 h, cabbage leaves soaked, second-instar larvae, after 3 days, read-out: mortality rate
Procedure: as §1, §2
(§3) Emulsion (I) was diluted with water so that the concentration of the compound of the present invention reaches 125 ppm. Cabbage leaves were soaked in the diluted liquid for 30 seconds. Then the cabbage leaves were put on Petri dishes, followed by inoculating 5 second-instar larvae of Plutella xylostella. The Petri dishes were placed in a thermostatic chamber with a temperature was 25° C. and a humidity of 60%. Life or death judgement was performed after 3 days were passed, and the insect mortality rate was calculated. The test was repeated twice.

[3] = test system: Spodoptera litura; assay: Efficacy test against Spodoptera litura; settings: 144 h, cabbage leaves soaked, second-instar larvae, after 6 days, read-out: insect mortality rate
Procedure: as §1, §2
as §3, with “of Spodoptera litura.” for “of Plutella xylostella.”, “after 6” for “after 3”

[4] = test system: Aphis craccivora; assay: Efficacy test against Aphis craccivora; settings: 96 h, spray on infested cowpea plants, nymphs, 4 days after spraying, read-out: mortality rate
Procedure: as §1, §2
Cowpea plants were raised in No. 3 pots and the first true leaves were inoculated with Aphis craccivora nymphs. Emulsion (I) was diluted with water so that the concentration of the compound of the present invention reaches 125 ppm, followed by spraying the diluted liquid on the cowpea plants infested with Aphis craccivora nymphs. The cowpea plants were then placed in a thermostatic chamber with a temperature of 25° C. and a humidity of 60%. Life or death judgement was performed after 4 days were passed from the spraying, and the insect mortality rate of Aphis craccivora was calculated. The test was repeated twice.

[5] = test system: Ornithodorus moubata; assay: Feeding effect test against Ornithodorus moubata; settings: 10 ppm in defibrin blood of sheep; third-nymphs; 14 days after the blood sucking
Procedure: A DMSO solution of the compound of the present invention was mixed with a defibrin blood of sheep to obtain a mixed solution with a concentration of 10 ppm. 2 ml of this mixed solution was placed in a container and capped with a parafilm membrane. Then, 20 third-nymphs of Ornithodorus moubata ere released to suck the blood through the parafilm membrane for about 30 minutes. Then, the nymphs were transferred to a storage container and incubated in a thermostatic chamber with a temperature of 28° C. and a humidity of 80%, and life or death judgement and developmental stage-investigation was performed 14 days after the blood sucking. The test was repeated twice.

[6] = test system: Aedes aegypti larvae; assay: Contact/feeding effect test on Aedes aegypti larvae; settings: final concentration of 10 ppm, first-instar larvae, 48 hours, read-out: insect mortality rate
Procedure: A DMSO solution of the compound of the present invention was diluted with water to obtain a diluted solution with a concentration of 100 ppm. 10 first-instar larvae of Aedes aegypti were placed in each well of a 96-well microtiter plate together with breeding water, and 1/10 volume of the diluted solution with a concentration of 100 ppm was added so that the test was carried out at a final concentration of 10 ppm. The microtiter plate was incubated in a thermostatic chamber with a temperature of 28° C. and a humidity of 80%, and life or death judgement was performed on the larvae was investigated 48 hours after the chemical treatment. The test was repeated twice.

[7] = test system: Lucilia cuprina larvae; assay: Contact/feeding effect test on Lucilia cuprina larvae; settings: 1000 ppm in horse meat, 48 hours, read-out: insect mortality rate
Procedure: A DMSO solution of the compound of the present invention was mixed with horse meat to obtain a mixture with a concentration of 1000 ppm. 20 Lucilia cuprina larvae were introduced into a test tube with the mixture. The tube was incubated in a thermostatic chamber with a temperature of 28° C. and a humidity of 80%, and life and death judgement was performed on the larvae 48 hours after the start of the test. The test was repeated twice.

[8] = test system: Culex pipiens; assay: Efficacy test against Culex pipiens; settings: Culex pipiens, 24 h, read-out: insect mortality rate
Procedure: as §1, §2
Emulsion (I) was diluted with water so that the concentration of the compound of the present invention reaches 2 ppm to prepare a chemical solution for test. 20 first-instar larvae of Culex pipiens were released into 100 ml of the chemical solution for test, then the number of dead insects was calculated after 1 day was passed, and the insect mortality rate was calculated by the formula. The test was repeated twice.

[9] = test system: Rhipicephalus microplus; assay: Contact effect test on Rhipicephalus microplus; settings: larvae, 24 hours after the chemical treatment, read-out: insect mortality rate
Procedure: A DMSO solution of the compound of the present invention was diluted with water to obtain a test solution with a concentration of 100 ppm. This chemical solution was dropped into a container containing 20 Rhipicephalus microplus larvae, and then incubated in a thermostatic chamber with a temperature of 28° C. and a humidity of 80%. Life or death judgement was performed on the larvae 24 hours after the chemical treatment. The test was repeated twice.

[10] = test system: Musca domestica; assay: Efficacy test against Musca domestica; settings: 100 ppm on cube sugar, adult female, after 24 hours, read-out: insect mortality rate
Procedure: as §2
The compound of the present invention was diluted with acetone, followed by dropping to 1 g of cube sugar so that the concentration reaches to 100 ppm. The cube sugar was placed in a plastic cup and 10 adult female Musca domestica were released therein, followed by putting a lid on the cup. The cup was kept at 25° C., and life or death judgement was performed after 24 hours was passed from the releasing of Musca domestica, and the insect mortality rate was calculated by the formula. The test was repeated twice.

[11] = test system: Pseudaletia separata; assay: Efficacy test against Pseudaletia separata (artificial diet); settings: in vivo
Procedure: as §1, §2
0.8 g of commercially available artificial diet (Insecta US, manufactured by Nosan Corporation) and 1 μl of emulsion (1) were well mixed and 0.2 g of the resulting mixture was packed in a plastic test container (1.4 ml) per each treatment group to prepare test feeds.
2 second-instar larvae of Pseudaletia separata were inoculated into each treatment group and sealed with a plastic lid. The plastic test containers were placed in a thermostatic chamber with a temperature of 25° C., and the insect mortality rate and the food intake amount were investigated on the fifth day. The test was repeated twice.
Further, a test under the same conditions except that the compound of the present invention was removed from emulsion (I) was conducted as a solvent control group.

[12] = test system: Rhopalosiphum padi; assay: Efficacy test against Rhopalosiphum padi (seed treatment); settings: 0.1 g compound per 10 g wheat seeds, adults released 7 days after seeding, counted after 6 days
Procedure: as §2
Nt: number of parasites in spray-treatment area
Nc: number of parasites in control area
0.1 g of each compound of the present invention was diluted with 2 ml of acetone to prepare chemical solutions for test. 10 g of wheat seeds was added to the chemical solution for test and air dried, followed by seedling 100 seeds in a planter. After keeping the planter in a warm room with a temperature of 25° C. for 7 days, 50 adult Rhopalosiphum padi were released in the planter. The number of surviving parasitized Rhopalosiphum padi was investigated after 6 days were passed, and the prevention rate was calculated by the formula. The test was repeated twice.

Compound: CCS(=O)(=O)c1cc(C(F)(F)F)ccc1-n1ncc(-c2ccc(OC(F)(F)F)cc2)c1Cl [Compound 1-17, 5-chloro-1-(2-(ethylsulfonyl)-4-(trifluoromethyl)phenyl)-4-(4-(trifluoromethoxy)phenyl)-1H-pyrazole]
- mortality at 125 ppm [1]: ≥ 80%
- mortality at 125 ppm [2]: ≥ 80%
- mortality at 125 ppm [3]: ≥ 80%
- mortality at 125 ppm [4]: ≥ 80%

Compound: CCS(=O)(=O)c1cc(C(F)(F)F)ccc1-n1ncc(-c2ccc(OC(F)(F)F)cc2)c1N [Compound 1-12, 1-(2-(ethylsulfonyl)-4-(trifluoromethyl)phenyl)-4-(4-(trifluoromethoxy)phenyl)-1H-pyrazol-5-amine]
- mortality at 125 ppm [1]: ≥ 80%
- insect mortality rate [5]: ≥ 90%
- mortality at 10 ppm [6]: ≥ 90%
- mortality at 125 ppm [2]: ≥ 80%
- mortality at 125 ppm [3]: ≥ 80%
- mortality at 125 ppm [4]: ≥ 80%
- mortality at 1000 ppm [7]: ≥ 90%
- mortality at 2 ppm [8]: 100%
- mortality at 100 ppm [9]: ≥ 90%
- mortality at 100 ppm [10]: ≥ 80%

Compound: CCS(=O)(=O)c1cc(C(F)(F)F)ccc1-n1ncc(-c2ccc(C(F)(F)C(F)(F)F)nc2)c1N [Compound 1-33]
- insect mortality rate [11]: 100%
- prevention rate [12]: ≥ 80%
